US20250163054A1, “SUBSTITUTED BICYCLIC HETEROARYL COMPOUNDS USEFUL AS INHIBITORS OF TLR9” (Bristol-Myers Squibb Company, priority 2022, published 2025)
Each block holds one compound with its values, some of them ahead of it.

Assays:
Assay type in all cases: cell-based
human TLR9 = biological target: T1, human TLR9 (Homo sapiens, UniProt Q9NR96); experiment: TLR7/8/9 Inhibition Reporter Assays (TLR9); conditions: HEK-Blue cells overexpressing human TLR9, SEAP reporter, stimulated with TLR9 ligand ODN2006
T1 construct: host or cells: HEK-Blue cells (HEK293-derived reporter line)
T1 sequence (Q9NR96 26-1032): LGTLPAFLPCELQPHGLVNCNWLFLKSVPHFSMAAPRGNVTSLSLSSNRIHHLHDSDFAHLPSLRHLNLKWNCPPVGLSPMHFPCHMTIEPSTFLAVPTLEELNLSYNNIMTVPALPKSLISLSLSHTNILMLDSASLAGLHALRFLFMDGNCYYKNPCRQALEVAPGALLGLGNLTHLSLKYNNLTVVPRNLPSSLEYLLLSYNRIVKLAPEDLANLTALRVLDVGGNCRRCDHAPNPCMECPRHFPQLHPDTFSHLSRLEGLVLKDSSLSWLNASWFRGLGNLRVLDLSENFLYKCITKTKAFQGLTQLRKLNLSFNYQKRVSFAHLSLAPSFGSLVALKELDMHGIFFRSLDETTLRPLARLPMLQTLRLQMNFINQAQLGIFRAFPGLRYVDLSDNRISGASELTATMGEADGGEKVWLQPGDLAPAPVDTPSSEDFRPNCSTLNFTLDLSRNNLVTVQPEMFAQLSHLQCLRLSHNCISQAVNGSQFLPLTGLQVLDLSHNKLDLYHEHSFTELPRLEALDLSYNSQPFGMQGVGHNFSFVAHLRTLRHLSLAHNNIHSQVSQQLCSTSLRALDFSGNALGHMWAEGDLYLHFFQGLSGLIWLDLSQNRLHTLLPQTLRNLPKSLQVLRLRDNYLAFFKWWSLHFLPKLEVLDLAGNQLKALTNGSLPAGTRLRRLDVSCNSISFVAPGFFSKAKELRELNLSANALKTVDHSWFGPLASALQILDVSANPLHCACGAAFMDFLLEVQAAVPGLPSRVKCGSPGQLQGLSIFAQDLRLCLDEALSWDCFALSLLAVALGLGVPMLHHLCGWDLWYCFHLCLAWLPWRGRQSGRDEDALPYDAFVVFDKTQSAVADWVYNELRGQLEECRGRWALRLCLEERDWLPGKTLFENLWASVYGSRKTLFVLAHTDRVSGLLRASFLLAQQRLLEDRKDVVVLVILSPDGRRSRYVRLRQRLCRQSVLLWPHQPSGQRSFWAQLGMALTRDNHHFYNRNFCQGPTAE
Procedure, shortened: (§1)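 HEK-Blue cells overexpressing human TLR7, TLR8 or TLR9 with NF-κB/AP-1-driven SEAP reporter, pre-treated 60 min with compound ([…]). Stimulated with […] (TLR7), […] (TLR8) or ODN2006 200 nM (TLR9), then 22 h at 37° C; SEAP measured, % inhibition relative to agonist-plus-DMSO and known-inhibitor wells.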

human TLR7 = biological target: T2, human TLR7 (Homo sapiens, UniProt Q9NYK1); experiment: TLR7/8/9 Inhibition Reporter Assays (TLR7); conditions: HEK-Blue cells overexpressing human TLR7, SEAP reporter, stimulated with TLR7 ligand gardiquimod
T2 construct: host or cells: HEK-Blue cells (HEK293-derived reporter line)
T2 sequence (Q9NYK1 27-1049): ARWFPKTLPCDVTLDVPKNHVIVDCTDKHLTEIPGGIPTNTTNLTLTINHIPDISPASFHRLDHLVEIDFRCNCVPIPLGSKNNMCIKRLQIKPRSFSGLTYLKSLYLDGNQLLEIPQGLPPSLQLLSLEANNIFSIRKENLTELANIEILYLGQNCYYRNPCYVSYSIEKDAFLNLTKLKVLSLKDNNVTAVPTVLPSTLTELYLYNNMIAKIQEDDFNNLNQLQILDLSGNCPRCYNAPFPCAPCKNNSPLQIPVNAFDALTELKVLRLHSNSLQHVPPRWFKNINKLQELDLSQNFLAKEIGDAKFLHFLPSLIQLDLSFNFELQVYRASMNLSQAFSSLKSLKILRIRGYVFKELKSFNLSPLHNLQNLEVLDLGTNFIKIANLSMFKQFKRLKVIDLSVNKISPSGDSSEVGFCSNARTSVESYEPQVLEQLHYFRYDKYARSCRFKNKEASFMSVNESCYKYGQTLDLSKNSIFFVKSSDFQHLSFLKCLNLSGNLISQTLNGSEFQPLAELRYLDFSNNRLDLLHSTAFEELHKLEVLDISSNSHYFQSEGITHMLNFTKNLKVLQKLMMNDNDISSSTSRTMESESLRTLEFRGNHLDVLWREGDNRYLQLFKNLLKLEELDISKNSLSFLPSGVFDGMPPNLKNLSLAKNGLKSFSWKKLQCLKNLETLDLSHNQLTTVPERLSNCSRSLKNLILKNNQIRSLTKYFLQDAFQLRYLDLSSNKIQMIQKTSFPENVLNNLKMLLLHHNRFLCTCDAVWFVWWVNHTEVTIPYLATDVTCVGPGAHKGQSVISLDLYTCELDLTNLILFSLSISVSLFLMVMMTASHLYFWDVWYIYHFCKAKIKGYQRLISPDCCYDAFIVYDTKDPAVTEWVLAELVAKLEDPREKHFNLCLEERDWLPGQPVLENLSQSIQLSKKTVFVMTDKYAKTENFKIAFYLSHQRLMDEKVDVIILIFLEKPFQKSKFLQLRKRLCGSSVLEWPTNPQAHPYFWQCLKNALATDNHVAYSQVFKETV
Procedure, shortened: as §1

human TLR8 = biological target: T3, human TLR8 (Homo sapiens, UniProt Q9NR97); experiment: TLR7/8/9 Inhibition Reporter Assays (TLR8); conditions: HEK-Blue cells overexpressing human TLR8, SEAP reporter, stimulated with TLR8 ligand R848
T3 construct: host or cells: HEK-Blue cells (HEK293-derived reporter line)
T3 sequence (Q9NR97 27-1041): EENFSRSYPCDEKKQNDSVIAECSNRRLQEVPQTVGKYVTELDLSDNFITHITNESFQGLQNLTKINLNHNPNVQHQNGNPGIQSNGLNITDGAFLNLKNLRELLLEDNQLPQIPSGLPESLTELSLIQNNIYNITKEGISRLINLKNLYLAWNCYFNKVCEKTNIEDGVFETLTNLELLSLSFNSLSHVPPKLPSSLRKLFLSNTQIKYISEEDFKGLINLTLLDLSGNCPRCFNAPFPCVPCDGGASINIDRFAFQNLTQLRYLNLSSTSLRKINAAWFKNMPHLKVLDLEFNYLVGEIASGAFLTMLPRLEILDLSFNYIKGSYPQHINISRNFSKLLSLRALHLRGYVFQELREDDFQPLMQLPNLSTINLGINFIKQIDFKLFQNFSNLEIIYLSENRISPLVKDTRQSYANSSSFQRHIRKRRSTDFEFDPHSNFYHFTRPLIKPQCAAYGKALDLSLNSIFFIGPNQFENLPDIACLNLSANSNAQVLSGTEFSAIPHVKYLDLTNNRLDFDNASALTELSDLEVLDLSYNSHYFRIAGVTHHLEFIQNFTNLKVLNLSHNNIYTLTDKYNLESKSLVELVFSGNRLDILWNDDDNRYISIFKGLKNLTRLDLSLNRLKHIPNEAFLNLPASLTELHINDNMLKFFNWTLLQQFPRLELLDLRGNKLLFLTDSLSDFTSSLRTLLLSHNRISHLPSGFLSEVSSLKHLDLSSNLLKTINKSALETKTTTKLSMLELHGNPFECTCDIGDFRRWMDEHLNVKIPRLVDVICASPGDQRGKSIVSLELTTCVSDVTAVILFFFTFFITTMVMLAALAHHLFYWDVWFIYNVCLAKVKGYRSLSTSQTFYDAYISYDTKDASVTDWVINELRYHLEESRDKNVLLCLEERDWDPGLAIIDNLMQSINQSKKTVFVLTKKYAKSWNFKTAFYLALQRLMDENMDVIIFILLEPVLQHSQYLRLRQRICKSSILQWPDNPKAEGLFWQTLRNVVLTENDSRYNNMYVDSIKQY
Procedure, shortened: as §1

Compound: CC(C)N1C[C@H]2CN(c3ccc(-c4cc5c(cn4)nc(-c4ccc(S(C)(=O)=O)cc4)n5C4CC4)cc3)C[C@H]2C1 [Example 87, 1-cyclopropyl-6-(4-((3aR,6aS)-5-isopropylhexahydropyrrolo[3,4-c]pyrrol-2(1H)-yl)phenyl)-2-(4-(methylsulfonyl)phenyl)-1H-imidazo[4,5-c]pyridine]
IC50 (human TLR9): 290 nM
IC50 (human TLR7): 1500 nM
IC50 (human TLR8): 2000 nM

Compound: CC(C)CN1C[C@@H]2CN(c3ccc(-c4cc5c(cn4)nc(-c4ccc(S(C)(=O)=O)cc4)n5C4CC4)cc3)C[C@@H]2C1 [Example 88, 1-cyclopropyl-6-(4-((3aR,6aS)-5-isobutylhexahydropyrrolo[3,4-c]pyrrol-2(1H)-yl)phenyl)-2-(4-(methylsulfonyl)phenyl)-1H-imidazo[4,5-c]pyridine]
IC50 (human TLR9): 330 nM
IC50 (human TLR7): 3400 nM
IC50 (human TLR8): 1100 nM

Compound: CC(C)N1CC2(CN(c3ccc(-c4cc5c(cn4)nc(-c4ccc(S(C)(=O)=O)cc4)n5C4CC4)cc3)C2)C1 [Example 89, 1-cyclopropyl-6-(4-(6-isopropyl-2,6-diazaspiro[3.3]heptan-2-yl)phenyl)-2-(4-(methylsulfonyl)phenyl)-1H-imidazo[4,5-c]pyridine]
IC50 (human TLR9): 420 nM
IC50 (human TLR7): 1900 nM
IC50 (human TLR8): 4500 nM

Compound: CC(C)CN1CC2(C1)CN(c1ccc(-c3cc4c(cn3)nc(-c3ccc(S(C)(=O)=O)cc3)n4C3CC3)cc1)C2 [Example 90, 1-cyclopropyl-6-(4-(6-isobutyl-2,6-diazaspiro[3.3]heptan-2-yl)phenyl)-2-(4-(methylsulfonyl)phenyl)-1H-imidazo[4,5-c]pyridine]
IC50 (human TLR9): 440 nM
IC50 (human TLR7): 5800 nM
IC50 (human TLR8): 2900 nM

Compound: Cc1nc(-c2ccc(N3C[C@H]4CN(CC(C)(C)O)C[C@H]4C3)cc2)cc2c1nc(-c1ccc(S(C)(=O)=O)cc1)n2C [Example 93, 1-((3aR,6aS)-5-(4-(1,4-dimethyl-2-(4-(methylsulfonyl)phenyl)-1H-imidazo[4,5-c]pyridin-6-yl)phenyl)hexahydropyrrolo[3,4-c]pyrrol-2(1H)-yl)-2-methylpropan-2-ol]
IC50 (human TLR9): 79 nM
IC50 (human TLR7): 810 nM
IC50 (human TLR8): 2000 nM

Compound: CC(C)N1CC2(CCN(c3ccc(-c4cc5c(cn4)nc(-c4ccc(S(C)(=O)=O)cc4)n5C)cc3)CC2)C1 [Example 95, 6-(4-(2-isopropyl-2,7-diazaspiro[3.5]nonan-7-yl)phenyl)-1-methyl-2-(4-(methylsulfonyl)phenyl)-1H-imidazo[4,5-c]pyridine]
IC50 (human TLR9): 350 nM
IC50 (human TLR7): 2100 nM
IC50 (human TLR8): 890 nM

Compound: CC(C)CN1CC2(CCN(c3ccc(-c4cc5c(cn4)nc(-c4ccc(S(C)(=O)=O)cc4)n5C)cc3)CC2)C1 [Example 96, 6-(4-(2-isobutyl-2,7-diazaspiro[3.5]nonan-7-yl)phenyl)-1-methyl-2-(4-(methylsulfonyl)phenyl)-1H-imidazo[4,5-c]pyridine]
IC50 (human TLR9): 240 nM
IC50 (human TLR7): 3000 nM
IC50 (human TLR8): 990 nM

Results, then the compound that gave them:

IC50 (human TLR9): 170 nM
IC50 (human TLR7): 5500 nM
IC50 (human TLR8): 6800 nM
Compound: Cc1nc(-c2ccc(N3CCC4(CC3)CN(CC(C)(C)O)C4)cc2)cc2c1nc(-c1ccc(S(C)(=O)=O)cc1)n2C [Example 91, 1-(7-(4-(1,4-dimethyl-2-(4-(methylsulfonyl)phenyl)-1H-imidazo[4,5-c]pyridin-6-yl)phenyl)-2,7-diazaspiro[3.5]nonan-2-yl)-2-methylpropan-2-ol]

IC50 (human TLR9): 1000 nM
IC50 (human TLR7): 1500 nM
IC50 (human TLR8): > 50000 nM
Compound: COc1ccc(-c2nc3c(C)nc(-c4ccc(N5CCC6(CC5)CN(CC(C)(C)O)C6)cc4)cc3n2C)cc1OC [Example 92, 1-(7-(4-(2-(3,4-dimethoxyphenyl)-1,4-dimethyl-1H-imidazo[4,5-c]pyridin-6-yl)phenyl)-2,7-diazaspiro[3.5]nonan-2-yl)-2-methylpropan-2-ol]

IC50 (human TLR9): 250 nM
IC50 (human TLR7): 2600 nM
IC50 (human TLR8): 44000 nM
Compound: COc1ccc(-c2nc3c(C)nc(-c4ccc(N5C[C@H]6CN(CC(C)(C)O)C[C@H]6C5)cc4)cc3n2C)cc1OC [Example 94, 1-((3aR,6aS)-5-(4-(2-(3,4-dimethoxyphenyl)-1,4-dimethyl-1H-imidazo[4,5-c]pyridin-6-yl)phenyl)hexahydropyrrolo[3,4-c]pyrrol-2(1H)-yl)-2-methylpropan-2-ol]

IC50 (human TLR9): 78 nM
IC50 (human TLR7): 6200 nM
IC50 (human TLR8): 6800 nM
Compound: Cc1nc(-c2ccc(N3CC4(CN(CC(C)(C)O)C4)C3)cc2)cc2c1nc(-c1ccc(S(C)(=O)=O)cc1)n2C [Example 97, 1-(6-(4-(1,4-dimethyl-2-(4-(methylsulfonyl)phenyl)-1H-imidazo[4,5-c]pyridin-6-yl)phenyl)-2,6-diazaspiro[3.3]heptan-2-yl)-2-methylpropan-2-ol]

IC50 (human TLR9): 63 nM
IC50 (human TLR7): 2400 nM
IC50 (human TLR8): > 50000 nM
Compound: Cc1nc(-c2ccc(N3CC4(CCN(CC(C)C)CC4)C3)cc2)cc2c1nc(-c1ccc(S(C)(=O)=O)cc1)n2C [Example 98, 6-(4-(7-isobutyl-2,7-diazaspiro[3.5]nonan-2-yl)phenyl)-1,4-dimethyl-2-(4-(methylsulfonyl)phenyl)-1H-imidazo[4,5-c]pyridine]
